In patent US11987586B1 (TAKEDA PHARMACEUTICAL COMPANY LIMITED, priority 2022, dated 2024):

target: T1, human OX2 receptor (Homo sapiens, UniProt O43614); experiment: Measurement of orexin type 2 receptor agonist activity (calcium fluorescence, Fluo-4, FDSS); type: cell-based; conditions: 3 uM test compound; CHO cells expressing human OX2 receptor; DMSO = 0%, 10 nM orexin A (human) = 100%
T1 construct: expressed in transfected cells
T1 sequence (O43614 1-444): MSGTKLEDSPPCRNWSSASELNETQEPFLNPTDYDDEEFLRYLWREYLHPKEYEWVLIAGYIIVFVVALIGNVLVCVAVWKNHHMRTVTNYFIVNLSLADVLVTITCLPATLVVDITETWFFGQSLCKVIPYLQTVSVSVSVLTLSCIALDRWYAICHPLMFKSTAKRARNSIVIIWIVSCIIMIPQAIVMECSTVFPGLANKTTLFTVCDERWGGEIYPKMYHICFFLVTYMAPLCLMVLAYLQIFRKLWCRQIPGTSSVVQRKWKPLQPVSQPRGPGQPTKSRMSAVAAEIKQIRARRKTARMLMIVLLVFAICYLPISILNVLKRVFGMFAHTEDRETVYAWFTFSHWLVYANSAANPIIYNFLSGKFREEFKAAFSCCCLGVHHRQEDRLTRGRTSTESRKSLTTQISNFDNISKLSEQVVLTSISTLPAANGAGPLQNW
How it was run: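 Agonist activity (%) was normalised to the response to 10 nM final human orexin A (100%) and to the DMSO vehicle (0%). The response was measured as the Fluo-4 calcium signal, read kinetically over 1 min 40 s after compound addition to Fluo-4/probenecid-loaded stable CHO-K1 clones expressing human OX2 (aa 1-444).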

SMILES	OX2R agonist activity (3 uM, %) [%]
CCS(=O)(=O)N[C@@H]1CN2C(=O)N(c3noc4cc(C)cc(-c5c(F)cc(F)cc5F)c34)C[C@@H]2C1(F)F [Example 153, N-{(6R,7aR)-7,7-difluoro-2-[6-methyl-4-(2,4,6-trifluorophenyl)-1,2-benzoxazol-3-yl]-3-oxohexahydro-1H-pyrrolo[1,2-c]imidazol-6-yl}ethanesulfonamide]	96
CCS(=O)(=O)N[C@@H]1CN2C(=O)N(c3noc4cc(C)cc(-c5c(F)cccc5F)c34)C[C@@H]2C1(F)F [Example 154, N-{(6R,7aR)-2-[4-(2,6-difluorophenyl)-6-methyl-1,2-benzoxazol-3-yl]-7,7-difluoro-3-oxohexahydro-1H-pyrrolo[1,2-c]imidazol-6-yl}ethanesulfonamide]	98
CCS(=O)(=O)N[C@@H]1Cn2c(cn(-c3noc4cc(C)cc(-c5c(F)cc(F)cc5F)c34)c2=O)C1(F)F [Example 155, N-{(6R)-7,7-difluoro-2-[6-methyl-4-(2,4,6-trifluorophenyl)-1,2-benzoxazol-3-yl]-3-oxo-2,5,6,7-tetrahydro-3H-pyrrolo[1,2-c]imidazol-6-yl}ethanesulfonamide]	96
CCS(=O)(=O)N[C@@H]1Cn2c(cn(-c3noc4cc(C)cc(-c5c(F)cccc5F)c34)c2=O)C1(F)F [Example 156, N-{(6R)-2-[4-(2,6-difluorophenyl)-6-methyl-1,2-benzoxazol-3-yl]-7,7-difluoro-3-oxo-2,5,6,7-tetrahydro-3H-pyrrolo[1,2-c]imidazol-6-yl}ethanesulfonamide]	102
CCS(=O)(=O)N[C@@H]1Cn2c(cn(-c3noc4cc(C(F)(F)F)cc(-c5c(F)cc(F)cc5F)c34)c2=O)C1(F)F [Example 157, N-{(6R)-7,7-difluoro-3-oxo-2-[6-(trifluoromethyl)-4-(2,4,6-trifluorophenyl)-1,2-benzoxazol-3-yl]-2,5,6,7-tetrahydro-3H-pyrrolo[1,2-c]imidazol-6-yl}ethanesulfonamide]	96
CCOc1cc(-c2c(F)cc(F)cc2F)c2c(N3C[C@H]4N(C[C@@H](NS(C)(=O)=O)C4(F)F)C3=O)noc2c1 [Example 160, N-{(6R,7aR)-2-[6-ethoxy-4-(2,4,6-trifluorophenyl)-1,2-benzoxazol-3-yl]-7,7-difluoro-3-oxohexahydro-1H-pyrrolo[1,2-c]imidazol-6-yl}methanesulfonamide]	99
CCS(=O)(=O)N[C@@H]1CN2C(=O)N(c3noc4cc(C)c(F)c(-c5c(F)cc(F)cc5F)c34)C[C@@H]2C1(F)F [Example 162, N-{(6R,7aR)-7,7-difluoro-2-[5-fluoro-6-methyl-4-(2,4,6-trifluorophenyl)-1,2-benzoxazol-3-yl]-3-oxohexahydro-1H-pyrrolo[1,2-c]imidazol-6-yl}ethanesulfonamide]	102
CCS(=O)(=O)N[C@@H]1Cn2c(cn(-c3noc4cc(COC)cc(-c5c(F)cccc5F)c34)c2=O)C1(F)F [Example 167, N-{(6R)-2-[4-(2,6-difluorophenyl)-6-(methoxymethyl)-1,2-benzoxazol-3-yl]-7,7-difluoro-3-oxo-2,5,6,7-tetrahydro-3H-pyrrolo[1,2-c]imidazol-6-yl}ethanesulfonamide]	97
CCS(=O)(=O)N[C@@H]1CN2C(=O)N(c3noc4cc(F)c(F)c(-c5c(F)cccc5F)c34)C[C@@H]2C1(F)F [Example 168, N-{(6R,7aR)-2-[4-(2,6-difluorophenyl)-5,6-difluoro-1,2-benzoxazol-3-yl]-7,7-difluoro-3-oxohexahydro-1H-pyrrolo[1,2-c]imidazol-6-yl}ethanesulfonamide]	102
CCS(=O)(=O)N[C@@H]1Cn2c(cn(-c3noc4cc(C)c(F)c(-c5c(F)cccc5F)c34)c2=O)C1(F)F [Example 169, N-{(6R)-2-[4-(2,6-difluorophenyl)-5-fluoro-6-methyl-1,2-benzoxazol-3-yl]-7,7-difluoro-3-oxo-2,5,6,7-tetrahydro-3H-pyrrolo[1,2-c]imidazol-6-yl}ethanesulfonamide]	103
CCS(=O)(=O)N[C@@H]1Cn2c(cn(-c3noc4cc(F)c(F)c(-c5c(F)cccc5F)c34)c2=O)C1(F)F [Example 170, N-{(6R)-2-[4-(2,6-difluorophenyl)-5,6-difluoro-1,2-benzoxazol-3-yl]-7,7-difluoro-3-oxo-2,5,6,7-tetrahydro-3H-pyrrolo[1,2-c]imidazol-6-yl}ethanesulfonamide]	94
CS(=O)(=O)N[C@@H]1CN2C(=O)N(c3noc4cc(F)c(F)c(-c5c(F)cc(F)cc5F)c34)C[C@@H]2C1(F)F [Example 171, N-{(6R,7aR)-2-[5,6-Difluoro-4-(2,4,6-trifluorophenyl)-1,2-benzoxazol-3-yl]-7,7-difluoro-3-oxohexahydro-1H-pyrrolo[1,2-c]imidazol-6-yl}methanesulfonamide]	100
Cc1cc(-c2c(F)cc(F)cc2F)c2c(-n3cc4n(c3=O)C[C@@H](NS(C)(=O)=O)C4(F)F)noc2n1 [Example 174, N-{(6R)-7,7-Difluoro-2-[6-methyl-4-(2,4,6-trifluorophenyl) [1,2]oxazolo [5,4-b]pyridin-3-yl]-3-oxo-2,5,6,7-tetrahydro-3H-pyrrolo[1,2-c]imidazol-6-yl}methanesulfonamide]	95
CS(=O)(=O)N[C@@H]1Cn2c(cn(-c3noc4cc(OC(F)(F)F)cc(-c5c(F)cc(F)cc5F)c34)c2=O)C1(F)F [Example 176, N-{(6R)-7,7-difluoro-3-oxo-2-[6-(trifluoromethoxy)-4-(2,4,6-trifluorophenyl)-1,2-benzoxazol-3-yl]-2,5,6,7-tetrahydro-3H-pyrrolo[1,2-c]imidazol-6-yl}methanesulfonamide]	89
CCS(=O)(=O)N[C@@H]1Cn2c(cn(-c3noc4cc(OC(F)F)cc(-c5c(F)cc(F)cc5F)c34)c2=O)C1(F)F [Example 179, N-{(6R)-2-[6-(difluoromethoxy)-4-(2,4,6-trifluorophenyl)-1,2-benzoxazol-3-yl]-7,7-difluoro-3-oxo-2,5,6,7-tetrahydro-3H-pyrrolo[1,2-c]imidazol-6-yl}ethanesulfonamide]	109

More lines, now with the values ahead:

OX2R agonist activity (3 uM, %) [%]	SMILES
92	CCS(=O)(=O)N[C@H]1Cc2cn(-c3nsc4nc(C)cc(-c5c(F)cccc5F)c34)c(=O)n2C1 [Example 152, N-{(6S)-2-[4-(2,6-difluorophenyl)-6-methyl[1,2]thiazolo[5,4-b]pyridin-3-yl]-3-oxo-2,5,6,7-tetrahydro-3H-pyrrolo[1,2-c]imidazol-6-yl}ethanesulfonamide]
103	CCS(=O)(=O)N[C@@H]1Cn2c(cn(-c3noc4cc(C)c(F)c(-c5c(F)cc(F)cc5F)c34)c2=O)C1(F)F [Example 163, N-{(6R)-7,7-difluoro-2-[5-fluoro-6-methyl-4-(2,4,6-trifluorophenyl)-1,2-benzoxazol-3-yl]-3-oxo-2,5,6,7-tetrahydro-3H-pyrrolo[1,2-c]imidazol-6-yl}ethanesulfonamide]
108	Cc1cc(-c2c(F)cccc2F)c2c(N3C[C@H]4N(C[C@@H](NS(C)(=O)=O)C4(F)F)C3=O)noc2n1 [Example 164, N-{(6R,7aR)-2-[4-(2,6-difluorophenyl)-6-methyl[1,2]oxazolo[5,4-b]pyridin-3-yl]-7,7-difluoro-3-oxohexahydro-1H-pyrrolo[1,2-c]imidazol-6-yl}methanesulfonamide]
97	CCS(=O)(=O)N[C@@H]1Cn2c(cn(-c3noc4cc(C(F)F)cc(-c5c(F)cc(F)cc5F)c34)c2=O)C1(F)F [Example 165, N-{(6R)-2-[6-(difluoromethyl)-4-(2,4,6-trifluorophenyl)-1,2-benzoxazol-3-yl]-7,7-difluoro-3-oxo-2,5,6,7-tetrahydro-3H-pyrrolo[1,2-c]imidazol-6-yl}ethanesulfonamide]
92	CCS(=O)(=O)N[C@@H]1Cn2c(cn(-c3noc4cc(COC)cc(-c5c(F)cc(F)cc5F)c34)c2=O)C1(F)F [Example 166, N-{(6R)-7,7-difluoro-2-[6-(methoxymethyl)-4-(2,4,6-trifluorophenyl)-1,2-benzoxazol-3-yl]-3-oxo-2,5,6,7-tetrahydro-3H-pyrrolo[1,2-c]imidazol-6-yl}ethanesulfonamide]
98	CCS(=O)(=O)N[C@@H]1CN2C(=O)N(c3noc4cc(F)c(F)c(-c5c(F)cc(F)cc5F)c34)C[C@@H]2C1(F)F [Example 172, N-{(6R,7aR)-2-[5,6-difluoro-4-(2,4,6-trifluorophenyl)-1,2-benzoxazol-3-yl]-7,7-difluoro-3-oxohexahydro-1H-pyrrolo[1,2-c]imidazol-6-yl}ethanesulfonamide]
98	CCS(=O)(=O)N[C@@H]1CN2C(=O)N(c3noc4nc(C)cc(-c5c(F)cc(F)cc5F)c34)C[C@@H]2C1(F)F [Example 175, N-{(6R,7aR)-7,7-difluoro-2-[6-methyl-4-(2,4,6-trifluorophenyl)[1,2]oxazolo[5,4-b]pyridin-3-yl]-3-oxohexahydro-1H-pyrrolo[1,2-c]imidazol-6-yl}ethanesulfonamide]
